Reference: US20250340511A1, “CELLULOSE SYNTHASE INHIBITORS AS A NEW CLASS OF HERBICIDE AND NON-GMO CROPS THAT ARE RESISTANT TO THE HERBICIDE” (Purdue Research Foundation, priority 2017, published 2025)
Read-outs that look alike come from different tables or passages of the source.

Experiments:
horseweed = horseweed growth on media containing ES20; type: in vivo; conditions: grown on growth media containing ES20
Description: (§1) FIG. 8B depicts 16-day-old tomato and horseweed grown on the media in the absence and presence of Cellulosin. Bars, 1 cm.
(§2) Because cellulose synthase is highly conserved in plants and ES20 targets the conserved catalytic domain, we hypothesize that ES20 is active in different plants, including common weeds. We tested this hypothesis by growing tomato and horseweed on growth media containing ES20.

[1] = tested on: CSC (YFP-CesA6) trafficking in root epidermal cells; experiment: YFP-CesA6 localization and FRAP after short-term ES20 treatment; type: cell-based, Arabidopsis
Description: FIGS. 5A and 5B. […] FIGS. 5C and 5D. […] FIGS. 5E and 5F. The exocytic delivery of CSC to the plasma membrane was reduced after ES20 treatment. *** indicates p<0.001 by paired t-test.
A large knowledge gap in plant biology is that it is […] how the activities of large protein complexes, such as CSC, are integrated with their cellular transport. Golgi localized CSCs are delivered to the plasma membrane to catalyze cellulose synthesis. CSCs are also localized to some small vesicles named SmaCCs. It is not known what occurs to CSCs when the catalytic core fails to bind a functional substrate. In order to understand better on the integration of CSC catalytic activity and CSC trafficking, we took a straight approach and observed the localization of CesA6 after short-term ES20 treatment. […] Reduced CSC density at the plasma membrane and increased SmaCCs density could be the result of increased endocytosis or decreased exocytic delivery of CSC. We then performed fluorescence recovery after photobleaching experiment to test whether the exocytic delivery of CSC was affected by ES20 treatment. We bleached YFP-CesA6 fluorescence at the plasma membrane and then observed the delivery of new CSC to the plasma membrane (FIG. 5D).

[2] = tested on: cesa6 E929K mutant and transgenic plants that express CesA6 E929K in wildtype; experiment: root growth of cesa6 E929K mutant and CesA6 E929K transgenic plants; type: in vivo; conditions: Arabidopsis thaliana; 1 μM of ES20; read-out: root length relative to plants grown on normal media
Description: The root length of […] mutant and transgenic plants that express CesA6^E929K in wildtype is about 80% of those grown on normal media.
The mutations we found are located in Arabidopsis thaliana CesA6 (AT5G64740), CesA4 (AT5G44030), CesA7 (AT5G17420) and CesA8 (AT4G18780) genes. Single nucleotide change in these mutants causes single amino acid change in CesA proteins and lead to reduced sensitivity to cellulosin (endosidin20 or ES20). The mutations we have discovered are listed in Table 1 and FIG. 11A showing the conserved amino acid residues of those subtypes of cellulose synthases. […] One is to create mutations in CesA6 homology gene in crop. The second is to express the mutant CesA6 in crops without knocking out endogenous CesA genes.

[3] = tested on: fra5 (CesA7 P557T) plants; experiment: growth response of fra5 mutant to ES20; type: in vivo, Arabidopsis thaliana
Description: (§3) FIG. 6A. Seedlings of Wildtype and fra5 grown on growth media supplemented with DMSO or ES20. FIG. 6B. Seedlings of Wildtype and any1 grown on growth media supplemented with DMSO or ES20. FIGS. 6C, 6D, 6E and 6F depict quantification on the growth of wildtype, […] and any/in the presence or absence of ES20.
(§4) Due to the conservation of plant CesAs in their central cytoplasmic domains, we hypothesized that ES20 targeted multiple CesAs to inhibit growth. In order to test this hypothesis, we tested the response of fra5 and any/to ES20. The mutant fra5 carries a mutation of P557T in Arabidopsis thaliana CesA7. CesA7 P557 aligns to CesA6 P595. […] The mutant any/carries a mutation of D604N in Arabidopsis CesA1. D604 in CesA1 aligns to D605 in CesA6.

tomato = tomato growth on media containing ES20; type: in vivo; conditions: grown on growth media containing ES20
Description: as §1, §2

[4] = tested on: any1 (CesA1 D604N) plants; experiment: growth response of any1 mutant to ES20; type: in vivo, Arabidopsis
Description: as §3, §4

[5] = tested on: general membrane trafficking (PIN2, BRI1, HDEL-GFP, Gop1p-YFP, SYP61-CFP, VHA1-GFP); experiment: live cell imaging of fluorescence-tagged cargo and organelle markers; type: cell-based, Arabidopsis
Protocol: Transgenic plants expressing different fluorescence-tagged proteins were examined for their cellular localization in the DMSO control treatment and after 2 hours of 5 μM ES20 treatment.
(§5) In order to identify small molecules that could be used in studying plant membrane trafficking, chemical libraries have been screened first using tobacco pollen growth assay and then Arabidopsis live cell imaging assay (Drakakaki G. et al., Proc Natl Acad Sci USA 2011, 108, 17850-17855). In primary screen, small molecules that inhibited pollen gemination or pollen tube growth in in vitro culture condition were selected. For secondary screen, selected small molecules were tested in Arabidopsis plants expressing different fluorescence-tagged cellular markers. […] Locations of general organelle markers, such as HDEL-GFP (Endoplasmic Reticulum, ER), Gop1p-YFP (Golgi), SYP61-CFP (Trans-Golgi Network, TGN) and VHA1-GFP (TGN), are unaffected as well by ES20 treatment (FIGS. 9A and 9B).

[6] = tested on: wildtype Arabidopsis seedlings; experiment: Arabidopsis seedling root growth on media supplemented with compound; type: in vivo, Arabidopsis thaliana; conditions: for activity at 1 µM: Arabidopsis thaliana
Protocol: FIG. 2A. […] FIG. 2B. […] FIG. 2C. Quantification on the root length of 6 days old wildtype and mutant seedlings grown on growth media supplemented with DMSO solvent control. FIG. 2D. […] FIG. 2E. The ratio of root length from plants grown on 1 μM ES20 and those grown on DMSO for each genotype. The root length of wildtype plants grown on 1 μM ES20 was reduced to about 25% of those grown on DMSO. […] FIG. 2F.
The root length of wildtype plants grown on 1 μM ES20 is about 20% of those that are grown on normal media.
Individual hypocotyl epidermal cells from plants grown on ES20 media are swollen as well in compare with those grown on regular media (FIG. 1H). These growth assays indicate that ES20 inhibits cell growth and causes cells to grow in an isotropic manner instead of anisotropic manner. The composition and organization of cell wall determines plant cell shapes.
In order to identify the cell growth pathways that are targeted by ES20, we performed a chemical genetic screen for mutants that have reduced sensitivity to this growth inhibitor. […] However, we found plants that have normal green cotyledons and leaves and elongated roots. These plants became obviously heathier and stronger than other plants after two weeks of growth on ES20 and were transferred to soil to get the M3 population. […] We generated the mapping population and used high-throughput whole genome sequencing to clone the mutant genes. […] 10 out of the 12 mutants were in CesA6 and two in CesA7. After two times of backcrosses, we consistently detected less sensitivity in these mutants to ES20 (FIGS. 2A to 2E).
In order to identify key structure in ES20 that causes its inhibition activity, we collected three close analogs of ES20 (FIG. 7A) and tested for their effect in inhibiting plant growth.

[7] = tested on: dark-grown Arabidopsis hypocotyls; experiment: crystalline cellulose content in dark-grown seedlings; type: in vivo, Arabidopsis thaliana; conditions: concentration printed as 'M ES20'
Description: Swollen cells and organs in plants are often caused by direct or indirect disruption of cell wall biosynthesis or organization. For example, swollen cells and roots have been found in cesa mutants and in plants treated with inhibitors of cellulose synthesis and microtubule organization (Arioli, T., et al., Science 1998, 279, 717-720; Burn, J. E., et al., Plant Physiol. 2002, 129, 797-807). The retarded growth and cell swollen phenotypes indicate that ES20 could affect cell growth through interfering with cell wall biosynthesis or organization. To test whether ES20 affects cell wall composition, we took the straightforward approach of analyzing crystallize cellulose content in seedlings grown in the presence of different concentrations of ES20 (Updegraff, D. M. Anal. Biochem. 1969, 32, 420-424). […] The content of crystalline cellulose in seedlings grown on M ES20 was reduced to about 50% of the seedlings grown in the absence of ES20 (FIG. 1J).

tobacco pollen tube = experiment: tobacco pollen growth assay; type: cell-based; conditions: in vitro culture
Protocol: as §5

[8] = target: T1, CesA6 central cytoplasmic domain (Arabidopsis thaliana, UniProt Q94JQ6); experiment: biochemical; type: binding; conditions: MST; SUMO-His / GFP tagged CesA6 central cytoplasmic domain purified from E. coli; read-out: dissociation constant (Kd)
T1 construct: we expressed and purified the central cytoplasmic domain of CesA6 from E. coli; made in house; host or cells: E. coli
T1 sequence (Q94JQ6 322-868 limits assumed): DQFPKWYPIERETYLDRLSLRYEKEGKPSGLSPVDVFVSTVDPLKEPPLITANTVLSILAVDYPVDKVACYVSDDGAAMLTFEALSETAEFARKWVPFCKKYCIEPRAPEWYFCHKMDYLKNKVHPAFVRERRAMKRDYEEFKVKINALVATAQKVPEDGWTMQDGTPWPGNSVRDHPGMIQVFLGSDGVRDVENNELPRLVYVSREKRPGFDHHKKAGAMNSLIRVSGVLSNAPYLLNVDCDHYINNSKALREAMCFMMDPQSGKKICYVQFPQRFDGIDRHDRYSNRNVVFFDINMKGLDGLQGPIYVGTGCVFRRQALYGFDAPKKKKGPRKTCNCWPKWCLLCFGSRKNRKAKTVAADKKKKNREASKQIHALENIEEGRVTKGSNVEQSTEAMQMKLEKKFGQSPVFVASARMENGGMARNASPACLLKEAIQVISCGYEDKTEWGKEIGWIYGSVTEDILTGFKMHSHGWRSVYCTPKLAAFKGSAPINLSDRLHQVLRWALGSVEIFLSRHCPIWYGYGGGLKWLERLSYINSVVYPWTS

COc1ccc(C(=O)NC(=S)NNC(=O)c2ccccc2C)cc1 [ES20]
growth inhibition of horseweed (horseweed): significantly inhibit the growth | density of plasma membrane localized CesA6 ([1]; root epidermal cells, short-term ES20 treatment): significantly reduced | numbers of SmaCCs that contain CesA6 ([1]; short-term ES20 treatment): significantly increased | CSC delivery to the plasma membrane (FRAP) ([1]; versus DMSO control): significantly lower than the DMSO control | activity at 1 µM [2]: ~80% | sensitivity of fra5 plants to ES20 [3]: reduced sensitivity to ES20 | growth inhibition of tomato (tomato): significantly inhibit the growth | sensitivity of any1 plants to ES20 [4]: less sensitive to ES20 | trafficking of cargo proteins PIN2 and BRI1 [5]: did not significantly affect the trafficking | locations of general organelle markers (ER, Golgi, TGN) ([5]; 2 hours of 5 μM ES20 treatment (FIGS. 9A, 9B)): unaffected | root phenotype after short-term treatment ([6]; 5 μM for 12 hours in liquid growth media): roots became swollen in the tip region | activity at 1 µM ([6]; 144 h, read-out: root length relative to plants grown on DMSO): ~25% | activity at 1 µM ([6]; read-out: root length relative to plants grown on normal media): ~20% | hypocotyl phenotype of seedlings grown under dark condition ([6]; dark-grown, dosage dependent): shorter and swollen hypocotyls | root growth arrest ([6]; wild type plants, 5 μM): completely arrests root growth | root phenotype of seedlings grown on media with compound ([6]; wildtype, dosage dependent): shorter and swollen roots | content of crystalline cellulose relative to seedlings grown in the absence of ES20 [7]: about 50% | tobacco pollen tube growth (tobacco pollen tube): inhibited tobacco pollen tube growth | Kd [8]: 15.4 ± 5.9 µM
